US20230085307A1, “PYRIDAZINONE COMPOUND AND HERBICIDE” (NISSAN CHEMICAL CORPORATION, priority 2019, published 2023)

Experiments:
late watergrass = assay: Test Example 1: herbicidal activity, application before weed generation under submerged conditions (Table 16, symbol A); format: in vivo, late watergrass (Echinochloa oryzicola); details: 320 g/ha applied herbicide
Procedure, shortened: (§1)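 Submerged Wagner pots (alluvial soil, 4 cm water) sown with weed seeds and planted with 2.5-leaf rice seedlings; emulsifiable concentrate diluted in water applied to water surface on sowing day. Held in greenhouse at 25-30 °C; injury scored 0-5 by herbicidal rate after three weeks.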

Japanese bulrush = assay: Test Example 1: herbicidal activity, application before weed generation under submerged conditions (Table 16, symbol B); format: in vivo, Japanese bulrush (Schoenoplectus juncoides); details: 320 g/ha applied herbicide
Procedure, shortened: as §1

oval-leafed pondweed = assay: Test Example 1: herbicidal activity, application before weed generation under submerged conditions (Table 16, symbol C); format: in vivo, oval-leafed pondweed (Monochoria vaginalis); details: 320 g/ha applied herbicide
Procedure, shortened: as §1

barnyard grass [1] = assay: Test Example 3: herbicidal effect by foliage application, Wagner pot (Table 18, symbol H); format: in vivo, barnyard grass (Echinochloa crus-galli); details: amount of applied herbicide 320 g/ha
Procedure, shortened: (§2)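 Plants were sown in alluvial soil held under 0.1–0.5 cm standing water and grown 14 days in a greenhouse at 25–30 °C. An emulsifiable formulation, water-diluted to the set dose, was then sprayed onto the foliage, and effects were scored three weeks later using previously defined criteria.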

Chinese sprangletop = assay: Test Example 3: herbicidal effect by foliage application, Wagner pot (Table 18, symbol D); format: in vivo, chinese sprangletop (Leptochloa chinensis); details: amount of applied herbicide 320 g/ha
Procedure, shortened: as §2

rice flat sedge = assay: Test Example 3: herbicidal effect by foliage application, Wagner pot (Table 18, symbol E); format: in vivo, rice flat sedge (Cyperus iria); details: amount of applied herbicide 320 g/ha
Procedure, shortened: as §2

southern crabgrass [2] = assay: Test Example 4: herbicidal effect by soil treatment (Table 19, symbol F); format: in vivo, southern crabgrass (Digitaria ciliaris); details: amount of applied herbicide 320 g/ha
Procedure, shortened: (§3)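 Applied as a water-diluted emulsion, the compound was sprayed onto soil covering newly sown seeds. Evaluation came three weeks after application, in a greenhouse held at 25° C. to 30° C.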

green foxtail [3] = assay: Test Example 4: herbicidal effect by soil treatment (Table 19, symbol G); format: in vivo, green foxtail (Setaria viridis); details: amount of applied herbicide 320 g/ha
Procedure, shortened: as §3

barnyard grass [4] = assay: Test Example 4: herbicidal effect by soil treatment (Table 19, symbol H); format: in vivo, barnyard grass (Echinochloa crus-galli); details: amount of applied herbicide 320 g/ha
Procedure, shortened: as §3

wild oat [5] = assay: Test Example 4: herbicidal effect by soil treatment (Table 19, symbol I); format: in vivo, wild oat (Avena fatua); details: amount of applied herbicide 320 g/ha
Procedure, shortened: as §3

blackgrass [6] = assay: Test Example 4: herbicidal effect by soil treatment (Table 19, symbol J); format: in vivo, blackgrass (Alopecurus myosuroides); details: amount of applied herbicide 320 g/ha
Procedure, shortened: as §3

Italian ryegrass [7] = assay: Test Example 4: herbicidal effect by soil treatment (Table 19, symbol K); format: in vivo, Italian ryegrass (Lolium multiflorum); details: amount of applied herbicide 320 g/ha
Procedure, shortened: as §3

windgrass [8] = assay: Test Example 4: herbicidal effect by soil treatment (Table 19, symbol L); format: in vivo, windgrass (Apera spica-venti); details: amount of applied herbicide 320 g/ha
Procedure, shortened: as §3

velvetleaf [9] = assay: Test Example 4: herbicidal effect by soil treatment (Table 19, symbol M); format: in vivo, velvetleaf (Abutilon theophrasti); details: amount of applied herbicide 320 g/ha
Procedure, shortened: as §3

redroot pigweed [10] = assay: Test Example 4: herbicidal effect by soil treatment (Table 19, symbol N); format: in vivo, redroot pigweed (Amaranthus retroflexus); details: amount of applied herbicide 320 g/ha
Procedure, shortened: as §3

lambsquarters [11] = assay: Test Example 4: herbicidal effect by soil treatment (Table 19, symbol O); format: in vivo, lambsquarters (Chenopodium album); details: amount of applied herbicide 320 g/ha
Procedure, shortened: as §3

chickweed [12] = assay: Test Example 4: herbicidal effect by soil treatment (Table 19, symbol P); format: in vivo, common chickweed (Stellaria media); details: amount of applied herbicide 320 g/ha
Procedure, shortened: as §3

persian speedwell [13] = assay: Test Example 4: herbicidal effect by soil treatment (Table 19, symbol R); format: in vivo, Persian speedwell (Veronica persica); details: amount of applied herbicide 320 g/ha
Procedure, shortened: as §3

southern crabgrass [14] = assay: Test Example 5: herbicidal effect by foliage application, plastic box (Table 20, symbol F); format: in vivo, southern crabgrass (Digitaria ciliaris); details: foliage application, 320 g/ha, evaluated three weeks after application
Procedure, shortened: (§4)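 Sow seeds spot-wise in sterilized diluvial soil; cover with ~1.5 cm soil. Grow 14 days in greenhouse, 25° C. to 30° C. Spray foliage with emulsion diluted to predetermined amount. Rate effect after 3 weeks.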

green foxtail [15] = assay: Test Example 5: herbicidal effect by foliage application, plastic box (Table 20, symbol G); format: in vivo, green foxtail (Setaria viridis); details: foliage application, 320 g/ha, evaluated three weeks after application
Procedure, shortened: as §4

barnyard grass [16] = assay: Test Example 5: herbicidal effect by foliage application, plastic box (Table 20, symbol H); format: in vivo, barnyard grass (Echinochloa crus-galli); details: foliage application, 320 g/ha, evaluated three weeks after application
Procedure, shortened: as §4

wild oat [17] = assay: Test Example 5: herbicidal effect by foliage application, plastic box (Table 20, symbol I); format: in vivo, wild oat (Avena fatua); details: foliage application, 320 g/ha, evaluated three weeks after application
Procedure, shortened: as §4

blackgrass [18] = assay: Test Example 5: herbicidal effect by foliage application, plastic box (Table 20, symbol J); format: in vivo, blackgrass (Alopecurus myosuroides); details: foliage application, 320 g/ha, evaluated three weeks after application
Procedure, shortened: as §4

Italian ryegrass [19] = assay: Test Example 5: herbicidal effect by foliage application, plastic box (Table 20, symbol K); format: in vivo, Italian ryegrass (Lolium multiflorum); details: foliage application, 320 g/ha, evaluated three weeks after application
Procedure, shortened: as §4

windgrass [20] = assay: Test Example 5: herbicidal effect by foliage application, plastic box (Table 20, symbol L); format: in vivo, windgrass (Apera spica-venti); details: foliage application, 320 g/ha, evaluated three weeks after application
Procedure, shortened: as §4

velvetleaf [21] = assay: Test Example 5: herbicidal effect by foliage application, plastic box (Table 20, symbol M); format: in vivo, velvetleaf (Abutilon theophrasti); details: foliage application, 320 g/ha, evaluated three weeks after application
Procedure, shortened: as §4

redroot pigweed [22] = assay: Test Example 5: herbicidal effect by foliage application, plastic box (Table 20, symbol N); format: in vivo, redroot pigweed (Amaranthus retroflexus); details: foliage application, 320 g/ha, evaluated three weeks after application
Procedure, shortened: as §4

lambsquarters [23] = assay: Test Example 5: herbicidal effect by foliage application, plastic box (Table 20, symbol O); format: in vivo, lambsquarters (Chenopodium album); details: foliage application, 320 g/ha, evaluated three weeks after application
Procedure, shortened: as §4

chickweed [24] = assay: Test Example 5: herbicidal effect by foliage application, plastic box (Table 20, symbol P); format: in vivo, common chickweed (Stellaria media); details: foliage application, 320 g/ha, evaluated three weeks after application
Procedure, shortened: as §4

persian speedwell [25] = assay: Test Example 5: herbicidal effect by foliage application, plastic box (Table 20, symbol R); format: in vivo, Persian speedwell (Veronica persica); details: foliage application, 320 g/ha, evaluated three weeks after application
Procedure, shortened: as §4

Compound | Herbicidal effect on A: late watergrass (grade 0-5) (late watergrass) | Herbicidal effect on B: Japanese bulrush (grade 0-5) (Japanese bulrush) | Herbicidal effect on C: oval-leafed pondweed (grade 0-5) (oval-leafed pondweed) | herbicidal effect on H: barnyard grass (barnyard grass [1]) | herbicidal effect on D: Chinese sprangletop (Chinese sprangletop) | herbicidal effect on E: rice flat sedge (rice flat sedge) | F: southern crabgrass, herbicidal effect rating (southern crabgrass [2]) | G: green foxtail, herbicidal effect rating (green foxtail [3]) | H: barnyard grass, herbicidal effect rating (barnyard grass [4]) | I: wild oat, herbicidal effect rating (wild oat [5]) | J: blackgrass, herbicidal effect rating (blackgrass [6]) | K: Italian ryegrass, herbicidal effect rating (Italian ryegrass [7]) | L: windgrass, herbicidal effect rating (windgrass [8]) | M: velvetleaf, herbicidal effect rating (velvetleaf [9]) | N: redroot pigweed, herbicidal effect rating (redroot pigweed [10]) | O: lambsquarters, herbicidal effect rating (lambsquarters [11]) | P: chickweed, herbicidal effect rating (chickweed [12]) | R: persian speedwell, herbicidal effect rating (persian speedwell [13]) | herbicidal effect on F: southern crabgrass (criteria 0-5) (southern crabgrass [14]) | herbicidal effect on G: green foxtail (criteria 0-5) (green foxtail [15]) | further results
CCCC(=O)Oc1c(C)nn(C)c(=O)c1-c1c(-c2ccccc2F)sc2ccc(F)cc12 [2-200] | 3 (Herbicidal rate of 40% or more and less than 70%) | 0 (Herbicidal rate of 5% or less (almost no effect)) | 0 (Herbicidal rate of 5% or less (almost no effect)) | 4 (Herbicidal rate of 70% or more and less than 90%) | 5 (Herbicidal rate of 90% or more (almost completely withered)) | 5 (Herbicidal rate of 90% or more (almost completely withered)) | 1 (Herbicidal rate of 5% or more and less than 20%) | 1 (Herbicidal rate of 5% or more and less than 20%) | 3 (Herbicidal rate of 40% or more and less than 70%) | 0 (Herbicidal rate of 5% or less (almost no effect)) | 0 (Herbicidal rate of 5% or less (almost no effect)) | 3 (Herbicidal rate of 40% or more and less than 70%) | 0 (Herbicidal rate of 5% or less (almost no effect)) | 0 (Herbicidal rate of 5% or less (almost no effect)) | 4 (Herbicidal rate of 70% or more and less than 90%) | 4 (Herbicidal rate of 70% or more and less than 90%) | 1 (Herbicidal rate of 5% or more and less than 20%) | 3 (Herbicidal rate of 40% or more and less than 70%) | 2 (Herbicidal rate of 20% or more and less than 40%) | 4 (Herbicidal rate of 70% or more and less than 90%) | herbicidal effect on H: barnyard grass (criteria 0-5) (barnyard grass [16]): 3 (Herbicidal rate of 40% or more and less than 70%); herbicidal effect on I: wild oat (criteria 0-5) (wild oat [17]): 0 (Herbicidal rate of 5% or less (almost no effect)); herbicidal effect on J: blackgrass (criteria 0-5) (blackgrass [18]): 1 (Herbicidal rate of 5% or more and less than 20%); herbicidal effect on K: Italian ryegrass (criteria 0-5) (Italian ryegrass [19]): 4 (Herbicidal rate of 70% or more and less than 90%); herbicidal effect on L: windgrass (criteria 0-5) (windgrass [20]): 3 (Herbicidal rate of 40% or more and less than 70%); herbicidal effect on M: velvetleaf (criteria 0-5) (velvetleaf [21]): 5 (Herbicidal rate of 90% or more (almost completely withered)); herbicidal effect on N: redroot pigweed (criteria 0-5) (redroot pigweed [22]): 5 (Herbicidal rate of 90% or more (almost completely withered)); herbicidal effect on O: lambsquarters (criteria 0-5) (lambsquarters [23]): 3 (Herbicidal rate of 40% or more and less than 70%); herbicidal effect on P: chickweed (criteria 0-5) (chickweed [24]): 5 (Herbicidal rate of 90% or more (almost completely withered)); herbicidal effect on R: persian speedwell (criteria 0-5) (persian speedwell [25]): 4 (Herbicidal rate of 70% or more and less than 90%)
CCCC(=O)Oc1c(C)nn(C)c(=O)c1-c1c(-c2cccc(OC)c2)sc2ccc(F)cc12 [2-210] | 3 (Herbicidal rate of 40% or more and less than 70%) | 0 (Herbicidal rate of 5% or less (almost no effect)) | 0 (Herbicidal rate of 5% or less (almost no effect)) | 5 (Herbicidal rate of 90% or more (almost completely withered)) | 5 (Herbicidal rate of 90% or more (almost completely withered)) | 5 (Herbicidal rate of 90% or more (almost completely withered)) | 4 (Herbicidal rate of 70% or more and less than 90%) | 4 (Herbicidal rate of 70% or more and less than 90%) | 4 (Herbicidal rate of 70% or more and less than 90%) | 0 (Herbicidal rate of 5% or less (almost no effect)) | 1 (Herbicidal rate of 5% or more and less than 20%) | 4 (Herbicidal rate of 70% or more and less than 90%) | 0 (Herbicidal rate of 5% or less (almost no effect)) | 2 (Herbicidal rate of 20% or more and less than 40%) | 5 (Herbicidal rate of 90% or more (almost completely withered)) | 1 (Herbicidal rate of 5% or more and less than 20%) | 4 (Herbicidal rate of 70% or more and less than 90%) | 5 (Herbicidal rate of 90% or more (almost completely withered)) | 5 (Herbicidal rate of 90% or more (almost completely withered)) | 5 (Herbicidal rate of 90% or more (almost completely withered)) | herbicidal effect on H: barnyard grass (criteria 0-5) (barnyard grass [16]): 4 (Herbicidal rate of 70% or more and less than 90%); herbicidal effect on I: wild oat (criteria 0-5) (wild oat [17]): 0 (Herbicidal rate of 5% or less (almost no effect)); herbicidal effect on J: blackgrass (criteria 0-5) (blackgrass [18]): 3 (Herbicidal rate of 40% or more and less than 70%); herbicidal effect on K: Italian ryegrass (criteria 0-5) (Italian ryegrass [19]): 4 (Herbicidal rate of 70% or more and less than 90%); herbicidal effect on L: windgrass (criteria 0-5) (windgrass [20]): 5 (Herbicidal rate of 90% or more (almost completely withered)); herbicidal effect on M: velvetleaf (criteria 0-5) (velvetleaf [21]): 5 (Herbicidal rate of 90% or more (almost completely withered)); herbicidal effect on N: redroot pigweed (criteria 0-5) (redroot pigweed [22]): 5 (Herbicidal rate of 90% or more (almost completely withered)); herbicidal effect on O: lambsquarters (criteria 0-5) (lambsquarters [23]): 4 (Herbicidal rate of 70% or more and less than 90%); herbicidal effect on P: chickweed (criteria 0-5) (chickweed [24]): 5 (Herbicidal rate of 90% or more (almost completely withered)); herbicidal effect on R: persian speedwell (criteria 0-5) (persian speedwell [25]): 5 (Herbicidal rate of 90% or more (almost completely withered))
